Test system: immunoglobulin A
Test: IgA production by mid colon biopsy samples of cats fed the diets, measured by ELISA
Type: in vivo, cat
Protocol: The study was carried out using eight members of the cat colonic health panel, which were known to be in good (intestinal) health. Cats were wormed and vaccinated 6 months prior to the start of the trial. The cats underwent the following trial regime; [table] Both the control diet and the glutamine enriched diet provided 405 kCal/100 g. The control diet was a dry diet containing approximately 4% water. The control diet comprised the following ingredients (˜is approximately): The glutamine-supplemented diet comprised 1% dry weight by weight glutamine provided as L-glutamine. The glutamine was sprayed onto the external surface of the dry control product. Levels of immunoglobulin A production by mid colon biopsy samples were measured by enzyme linked immunosorbent assay (ELISA). IgA ELISA test was obtained from Bethyl and performed as described in provided protocol sheets. In short, 96 well microplates were taken and coated with 100 μl anti-canine IgA overnight at 4° C. After each step the plates were washed with ELISA wash (50 Mm) Tris, pH 8.0, 0.1M NaCl, 0.05% Tween 20). Unreacted sites were blocked with tris-buffered saline (TBS) containing 1% bovine serum albumin (BSA) for 30 minutes. […] Finally, the absorbence was read spectrophotometrically at 450 nm using an ELISA plate reader.

What does the source list for `NC(=O)CC[C@H](N)C(=O)O` [Glutamine, L-glutamine]?
IgA production by the colon, compared to the other diets (cats fed diets containing 1% glutamine, samples taken from below the transwell, P=0.048, GLM): significant increase; IgA production (ng/mg protein) Intestinal Sample (healthy cats, diet with 1% dry w/w L-glutamine for 28 days, mid colon biopsy samples, letters (a)/(b) mark a significant difference): 1003.1 ± 762.9 (b) ng/mg protein
